Data published in US20060228384A1, “Control of biofilm with a biofilm inhibitor” (Sequoia Sciences, Inc., priority 2005, published 2006).

Key:
Propionibacterium acnes = conditions: each compound alone; cited from earlier work
biofilm = experiment: Biofilm Inhibition Assay (compound library screening and analogs, methods as in Example 1); type: cell-based; conditions: tested as mentioned in Example 1
Excerpt: As is evident from the Biofilm Inhibiton Assay results presented in Table 1, one compound from Hit 39, SF382 confirmed biofilm inhibition after purification. […] Thus, the percentage of bacteria attached (within the biofilm) versus free-floating compared to untreated (negative) control has shifted toward free-floating upon addition of the treatment. Compound SF382 was particularly active, reducing the formation of biofilm by 50% compared to negative control. Compound SF382 is represented by structure (I).
(§1) In vitro biofilm inhibition was evaluated using a high-throughput method. This method uses standard pre-sterilized 96-well polystyrene microtiter plates. Each well was filled to a final volume of 200 μl. Initially, a concentrated compound solution is transferred into each well, except those which are used as controls, to achieve an appropriate testing concentration, typically 10 μg/ml. 150 μl of sterile media was then added, followed by 50 μl of bacterial inoculum. The plates were then placed on a shaker for 24 hours.
After the allotted growth time, the samples were removed from the shaker, rinsed and stained. The rinse involves first draining the wells, filling each well with PBS, and draining each well again. The rinse removes suspended cells from the system. […] The plate was then immediately analyzed with a microtiter plate reader. The samples and controls were analyzed in triplicate. […]

[1] = system: Pseudomonas aeruginosa PA01; experiment: In vitro biofilm inhibition, 96-well plate, crystal violet (Example 1); type: cell-based; conditions: 10 μg/mL, 24 hours
Experimental: as §1
(§2) After the allotted growth time, the samples were removed from the shaker, rinsed and stained. The rinse involves first draining the wells, filling each well with PBS, and draining each well again. The rinse removes suspended cells from the system. The biofilm was then stained with crystal violet for 20 minutes. The wells were each rinsed 4 times to remove any excess stain from the system and then eluted with 250 μl of ethanol. The elution step improves the detection of the stain during the analyses. The plate was then immediately analyzed with a microtiter plate reader. The samples and controls were analyzed in triplicate. Each plate contains negative and positive controls. The test samples were compared to the positive and negative controls to detect any reduction in the total amount of biofilm.

[2] = system: Staphylococcus epidermidis ATCC 29641; experiment: as above; type: cell-based; conditions: ATCC29641, 10 μg/mL, 24 hours
Experimental: as §1, §2

Escherichia coli JM109 = experiment: Biofilm formation and growth of wild-type E. coli JM109 (Example 2); type: cell-based; conditions: compared to controls
Experimental: (§3) Biofilm inhibition experiments were conducted using an assay adapted from the reported protocol described in Pratt and Kolter, 1998, Molecular Microbiology, 30: 285-293; Li et al., 2001, J. Bacteriol., 183: 897-908. E. coli JM109 was grown in LB with or without 0.2% glucose in 96 well plates at 37° C. for two days without shaking. To quantify the biofilm mass, the suspension culture was poured out and the biofilm was washed three times with water. The biofilm was stained with 0.1% crystal violet for 20 minutes. The plates were then washed three times with water. OD reading at 540 nm was measured to quantify the biofilm mass at the bottom of the wells. Then 95% ethanol was added to dissolve the dye at the bottom and on the wall and the OD reading at 540 nm was measured to quantify the total biofilm mass. To study the overall effect of palmitoleic acid (3.6 mg/mL in 100% ethanol as stock solution), it was added with the inoculation and a time course of biofilm mass was measured. To study if the compound can cause biofilm removal, it was added one day after inoculation. Appropriate amounts of 100% ethanol were added to each sample to eliminate the effect of solvent. Four plates were prepared for each study to give a time course. Each condition had 3-4 replicates on each plate.

[3] = system: methicillin-resistant Staphylococcus aureus 78-13607A; experiment: Antibacterial effect, NCCLS procedures (Example 3); type: cell-based; conditions: studied at 32 μg/mL, read-out: MIC (minimal inhibitory concentration)
Experimental: (§4) Using the appropriate NCCLS procedures, the antibacterial effect of palmitoleic acid on two strains of methicillin-resistant Staphylococcus aureus (ATCC 33591 and 78-13607A) was studied at 32 μg/mL.

[4] = system: methicillin-resistant Staphylococcus aureus ATCC 33591; experiment: Antibacterial effect, NCCLS procedures (Example 3); type: cell-based; conditions: ATCC33591, studied at 32 μg/mL, read-out: MIC (minimal inhibitory concentration)
Experimental: as §4

Escherichia coli UTI89 = experiment: Biofilm inhibition dose response, clinical strain (Example 4); type: cell-based; conditions: LB media, compared to controls
Experimental: as §3
Dose response experiments were conducted on palmitoleic acid as described in Example 2 at 4, 8, 16, and 32 ug/mL with E. coli UT189 in LB media.

[5] = system: Pseudomonas aeruginosa strain PAO1; experiment: Rotating disk reactor biofilm with tobramycin, CFU enumeration (Example 5); type: cell-based; conditions: palmitoleic acid approx. 100 μg/ml 24 h then tobramycin 100 μg/ml 2 h; combined treatment compared to tobramycin alone
Experimental: Biofilm formation of P. aeruginosa was evaluated using a standardized biofilm method with a rotating disk reactor (RDR). This method provides a model resembling the formation of biofilms in cystic fibrosis patients. The rotating disk reactor consists of a one-liter glass beaker fitted with a drain spout. The bottom of the vessel contains a magnetically driven rotor with six 1.27 cm diameter coupons constructed from polystyrene. The rotor consists of a star-head magnetic stir bar upon which a disk was affixed to hold the coupons. The vessel with the stir bar was placed on a stir plate and rotated to provide fluid shear. A nutrient solution (AB Trace Medium with 0.3 mM glucose, see Table 3 below for composition) was added through a stopper in the top of the reactor at a flow rate of 5 ml/min. The reactor volume was approximately 180 ml and varied slightly between reactors depending on the placement of the drain spout and the rotational speed of the rotor. At a volume of 180 ml, the residence time of the reactors was 36 minutes. The reactors were operated at room temperature (c.a. 26° C.).
For each test, two RDRs were operated in parallel with one receiving palmitoleic acid and the other serving as an untreated control. […] The plates were incubated for 24 hours at 37° C. before colony forming units (CFU) were determined.

[6] = system: human hepatocellular carcinoma cells (HepG2); experiment: In vitro cytotoxicity assessment (Example 7); type: cell-based; conditions: 30 or 60 μM, fluorometric detection of mitochondrial activity
Experimental: Palmitoleic acid was tested to assess its cytotoxicity in human hepatocellular carcinoma cells (HepG2). Palmitoleic acid was tested at two concentrations of 30 and 60 μM in HepG2 cells in triplicate. Gross cytotoxicity was assayed by fluorometric detection in response to mitochondrial activity according to Nociari M M, et al. (1998) J. Immunol. Met. 213:157. Chlorpromazine was used as a positive control.

[7] = system: Streptococcus mutans 25175; experiment: Biofilm growth inhibition in polycarbonate tubes (Example 8); type: cell-based; conditions: 80 μg/mL
[8] = system: Streptococcus sobrinus 6715; experiment: as above; type: cell-based; conditions: 80 μg/mL
[9] = In vivo PK study in rats (Example 9); set-up: species or system rat; conditions: plasma
Experimental: Two groups of animals were prepared to evaluate palmitoleic acid. Palmitoleic acid was evaluated for two dose routes consisting of 50 mg/kg (IV) and 100 mg/kg (Oral). Three animals were assigned to the IV route group and two animals were assigned to the oral route group. Prior to dosing, a baseline blood sample was taken from each animal. At time zero, a single bolus dose of palmitoleic acid in 10% Cremophor (BASF) was given to each animal. Blood samples were taken from each animal at 1, 4, 12 and 24 hours post dosing. All blood samples were processed to plasma.
The plasma samples were extracted by adding internal standard at a concentration of 10 μg/mL to achieve a final concentration of 2 μg/mL when reconstituted. A solution of 80:20 methanol:chloroform was used to cause protein precipitation. The samples were then vortexed and centrifuged. The supernatant was decanted and the solvent was evaporated off. Samples were then analyzed and quantified by LC/MS.

Gram-positive bacteria = conditions: cited from earlier work
[10] = system: Gram-negative bacteria such as Pseudomonas aeruginosa, and Escherichia coli; conditions: also P. acnes and several methicillin-resistant S. aureus strains; cited from earlier work
P. acnes = conditions: 125 ug/ml; cited from earlier work
[11] = system: clinical strains of Staphylococcus aureus; conditions: 100 ug/ml; cited from earlier work

For Cc1ncc([N+](=O)[O-])n1CCO [metranidazole, reference compound], the “growth inhibition, compound alone” value (Propionibacterium acnes) is listed as “neither compound alone could effectively inhibit the growth”.

For CCCCCCCCCCCCCCCC(=O)O [palmitic acid], the “inhibition of the formation of biofilms” value (biofilm) was “does not inhibit the formation of biofilms”.

In the case of CCCCCC/C=C\CCCCCCCC(=O)O [palmitoleic acid], the inhibition at 10 µg/mL [1] is reported as 55%, the inhibition at 10 µg/mL [2] is reported as 80% and the “inhibition of total biofilm formation (reduction)” value (Escherichia coli JM109; approximately 20 μM, added with inoculation) is reported as “about 60%”. The “inhibitory effect on growth” value (Escherichia coli JM109) was “no inhibitory effect”, the MIC [3] was over 32 µg/mL and the MIC [4] was over 32 µg/mL. The inhibition at 4 µg/mL (Escherichia coli UTI89; 4 μg/mL) was about 10%, the inhibition at 8 µg/mL (Escherichia coli UTI89; 8 μg/mL) was about 55% and the inhibition at 16 µg/mL (Escherichia coli UTI89; 16 μg/mL) was about 70%. The inhibition at 32 µg/mL (Escherichia coli UTI89; 32 μg/mL) was about 80%, the “reduction of CFUs” value [5] was 60% and the cytotoxicity [6] was “not observed”. For the same compound, the inhibition at 80 µg/mL [7] was over 75%, the inhibition at 80 µg/mL [8] was over 75% and the AUC ([9]; IV 50 mg/kg single bolus in 10% Cremophor) was 123 µg/mL/h. For the same compound, the AUC ([9]; oral 100 mg/kg single dose in 10% Cremophor) was 219.71 µg/mL/h, the “typical minimal inhibitory concentration (MIC) value” (Gram-positive bacteria; growth of Gram-positive bacteria) was 10 to 20 µg/mL and the “synergistic effect with mupirocin” value (Gram-positive bacteria; palmitoleic acid and mupirocin against Gram-positive bacteria) was “no synergistic effect was observed”. For the same compound, the growth inhibition [10] was “could not inhibit the growth”, the growth inhibition (P. acnes) was “failed to inhibit the growth” and the inhibitory effect [11] was “no inhibitory effect”. For the same compound, the “growth inhibition, compound alone” value (Propionibacterium acnes) was “neither compound alone could effectively inhibit the growth”.
